Laboratory results published in patent publication US20240342156A1, “METHODS FOR TREATING PAIN” (Xenon Pharmaceuticals Inc., priority 2019, published 2024).
pEC50: −log10 of the molar value. Like-named read-outs stand apart in the source and are kept apart here.

Tests used:
[1] = system: CD1 mice (acetic acid induced writhing); experiment: Acetic acid writhing (AAW) mouse model of visceral/inflammatory pain; type: in vivo; settings: for pEC50: Mus musculus, PK/PD correlation; for number of nociceptive events: CD1 mice, 0.4% acetic acid i.p.
Description: Objective: The acetic acid test was performed to assess the potential efficacy of Compound A in the acetic acid writhing (AAW) model of inflammatory pain. The AAW test was performed as described previously ([…] Bi et al., “Visceral hyperalgesia induced by forebrain-specific suppression of native Kv7/KCNQ/M-current in mice.” Mol. Pain 2011, 7:84; Gabriela F. Pavao-de-Souza et al., “Acetic acid- and phenyl-p-benzoquinone-induced overt pain-like behavior depends on spinal activation of MAP kinases, PI3K and microglia in mice.” Pharmacol. Biochem. Behav. 101 (2012) 320-328; […] Lett. 413 (2007) 159-162; Mosad A. Ghareeb et al., “HPLC-ESI-MS/MS Profiling of Polyphenolics of a Leaf Extract from Alpinia zerumbet (Zingiberaceae) and Its Anti-Inflammatory, Anti-Nociceptive, and Antipyretic Activities In Vivo.” Molecules 23 (2018) 3238; and […] et al., “Analgesic Activity of Acid-Sensing Ion Channel 3 (ASIC3) Inhibitors: Sea Anemones Peptides Ugr9-1 and APETx2 versus Low Molecular Weight Compounds.” Mar. Drugs 16 (2018), 500). Study Design: Briefly, acetic acid was injected intraperitoneally at 0.4% concentration in 6-7 week old CD1 mice. After the injection of acetic acid, animals were placed in a chamber and their subsequent writhing behavior was video recorded. A writhe is defined as contraction of abdominal muscles accompanied by elongation of the body and extension of hind limbs or rotation of the trunk. […] were counted between 5-15 min after the injection of acetic acid. Selection of Acetic Acid Dose: Based on the concentration response (0.2-0.8%) of acetic acid in CD1 mice, EC75 concentration (0.4%) was selected to produce optimal writhing response. Diclofenac was used as positive control in the acetic acid model.

[2] = system: rat spinal nerve ligation (SNL)/Chung model of neuropathic pain; experiment: Spinal nerve ligation (SNL)/Chung model, tactile allodynia, electronic von Frey test on lesioned paw; type: in vivo
Description: Objective: The efficacy of Compound A was assessed using the rat spinal nerve ligation (SNL)/Chung model of neuropathic pain. The SNL model in rats was developed as described previously (Chung J M, Kim H K, Chung K. “Segmental spinal nerve ligation model of neuropathic pain.” Methods Mol. Med. 99 (2004) 35-45).
Study Design. Briefly, on Day 0, von Frey and cold plate tests were used for baseline measurements of tactile and cold allodynia respectively. Post-baseline measurements, rats (171-209 g male Sprague Dawley) were anesthetized and an incision at the L4-S2 level was performed to expose the left L5 nerve. A ligature was tied tightly around the L5 nerve (Chung et al.; R. Dost et al., “The anti-hyperalgesic activity of Retigabine is mediated by KCNQ potassium channel activation.” Naunyn-Schmiedeberg's Arch. Pharmacol. 369 (2004) 382-390; Gordon Blackburn-Munro et al., “The anticonvulsant retigabine attenuates nociceptive behaviors in rat models of persistent and neuropathic pain.” Eur. J Pharmacol. 460 (2003) 109-116; and Wu Y J et al., “Discovery of (S,E)-3-(2-fluorophenyl)-N-(1-(3-(pyridin-3-yloxy)phenyl)ethyl)-acrylamide as a potent and efficacious KCNQ2 (Kv7.2) opener for the treatment of neuropathic pain.” Bioorg Med. Chem. Lett. 23 (2013) 6188-91). The wound was then sutured and the rats were allowed to recover. On Day 13, post-surgery baselines for tactile and cold allodynia were measured to verify neuropathic pain. Animals were assigned to treatment groups based on the post-surgery baseline score.
Dosing: For efficacy testing, Compound A was dosed orally once a day for 5 consecutive days from Day 14-18.
Rats were placed under an inverted acrylic plastic box on a grid floor. The tip of an electronic von Frey probe was then applied with increasing force to the surgery hind paw and the force required to induce paw-withdrawal was automatically recorded. The procedure was carried out 3 times and the mean paw withdrawal force was calculated. The experimenter was double blinded to treatment.

[3] = Day 18 at 2 h, 8 mg/kg p.o. once daily Day 14-18
[4] = Day 18 at 2 h, 16 mg/kg p.o. once daily Day 14-18
[5] = Day 18 at 2 h, 24 mg/kg p.o. once daily Day 14-18

## Cc1cc(N2CCc3cc(F)ccc3C2)cc(C)c1NC(=O)CC(C)(C)C [Compound A, N-[4-(6-fluoro-3,4-dihydro-TH-isoquinolin-2-yl)-2,6-dimethylphenyl]-3,3-dimethylbutanamide]
[1]; read-out: EC50 (effective concentration to give a 50% reduction in nociceptive events), concentration in brain
  pEC50: 6.40
[1]; read-out: EC50 (effective concentration to give a 50% reduction in nociceptive events), concentration in plasma
  pEC50: 6.60
[1]; Study 1, vehicle, 1, 3 and 10 mg/kg
  number of nociceptive events: dose-responsive decrease
[1]; Study 2, 10 mg/kg
  number of nociceptive events: decrease
[2]; Day 14 and Day 18, compared to morphine
  effect on the tactile allodynia endpoint: neither Compound A nor retigabine had much effect
[2]; Day 14 at 2 h, 8 mg/kg p.o.
  Force inducing paw-withdrawal (g), Delta from baseline compared with Vehicle (p.o.), Δ: +6.7 g
  Force inducing paw-withdrawal (g), Delta from baseline, Mean ± s.e.m.: +7.0 ± 2.5 g
  Force inducing paw-withdrawal (g), Mean ± s.e.m.: 28.5 ± 3.4 g
[2]; Day 14 at 2 h, 16 mg/kg p.o.
  Force inducing paw-withdrawal (g), Delta from baseline compared with Vehicle (p.o.), Δ: +5.1 g
  Force inducing paw-withdrawal (g), Delta from baseline, Mean ± s.e.m.: +5.4 ± 2.1 g
  Force inducing paw-withdrawal (g), Mean ± s.e.m.: 25.2 ± 1.9 g
[2]; Day 14 at 2 h, 24 mg/kg p.o.
  Force inducing paw-withdrawal (g), Delta from baseline compared with Vehicle (p.o.), Δ: +7.2 g
  Force inducing paw-withdrawal (g), Delta from baseline, Mean ± s.e.m.: +7.5 ± 3.1 g
  Force inducing paw-withdrawal (g), Mean ± s.e.m.: 29.9 ± 2.9 g
[2]; [3]
  Force inducing paw-withdrawal (g), Delta from baseline compared with Vehicle (p.o.), Δ: +7.8 g
  Force inducing paw-withdrawal (g), Delta from baseline, Mean ± s.e.m.: +10.6 ± 3.5 g
  Force inducing paw-withdrawal (g), Mean ± s.e.m.: 32.1 ± 3.6 g
[2]; [4]
  Force inducing paw-withdrawal (g), Delta from baseline compared with Vehicle (p.o.), Δ: +2.6 g
  Force inducing paw-withdrawal (g), Delta from baseline, Mean ± s.e.m.: +5.4 ± 2.1 g
  Force inducing paw-withdrawal (g), Mean ± s.e.m.: 25.2 ± 2.0 g
[2]; [5]
  Force inducing paw-withdrawal (g), Delta from baseline compared with Vehicle (p.o.), Δ: +8.7 g
  Force inducing paw-withdrawal (g), Delta from baseline, Mean ± s.e.m.: +11.5 ± 3.0 g
  Force inducing paw-withdrawal (g), Mean ± s.e.m.: 33.8 ± 3.6 g
